Results: patent US5753678A, “Heterocyclic compounds” (Novo Nordisk A/S, priority 1995, dated 1998)
Structures can show the parent of a compound that is named as a salt.

System: histamine induced paw oedema
Assay: Histamine induced paw oedema
Type: in vivo, male Sprague-Dawley rats
Conditions: at 1 mg/kg, intraperitoneally 15 minutes before the anesthetics, rats, paw swelling 20 minutes after histamine
Method: II. Histamine induced paw oedema Values for in vivo inhibition of […] induced oedema for the compounds of the present invention were assessed in rats essentially as described by Amann et al. (Europ. J. Pharmacol. 30 279, 227-231, 1995). In brief 250-300 g male Sprague-Dawley rats were […] pentobarbital sodium, and placed on a 32 degree heated table. Ten minutes later histamine (50 microliter, 3 mg/ml) was injected in the right hind paw and 20 minutes hereafter the paw swelling was determined by water plethysmography (Ugo Basile). Test compounds were administered intraperitoneally at 15 minutes before the anesthetics. |Inhibition of histamine induced oedema at 1 mg/kg

Structure (SMILES): Cl.O=C(O)[C@@H]1CCCN(CCC=C2c3ccccc3OCOc3ccccc32)C1 [Example 2, (R)-1-(3-(12H-Dibenzo[d,g][1,3]dioxocin-12-ylidene)-1-propyl)-3-piperidinecarboxylic acid hydrochloride]
- % oedema inhibition: 52%

Structure (SMILES): CCOC(=O)[C@@H]1CCCN(CCC=C2c3ccccc3OCOc3ccccc32)C1 [Example 3, (R)-1-(3-(12H-Dibenzo[d,g][1,3]doxocin-12-ylidene)-1-propyl)-3-piperidinecarboxylic acid ethyl ester hydrochloride]
- % oedema inhibition: 33%
